Reference: US20200038513A1, “MODULATORS OF FAK PROTEOLYSIS AND ASSOCIATED METHODS OF USE” (ARVINAS OPERATIONS, INC., priority 2018, published 2020)
Read-outs that look alike come from different tables or passages of the source.

Assays:
[1] = Pharmacokinetics of intraperitoneal or intravenous injection in CD1 mice; type: in vivo; conditions: for Conc. (ng/mL) Mouse 2 / Conc. (ng/mL) Mouse 1 / Conc. (ng/mL) Mouse 3 / concentration at 0.25 h / concentration at 0.5 h / concentration at 1 h / concentration at 2 h / concentration at 4 h / concentration at 8 h / concentration at 24 h / concentration at 0.033 h / concentration at 0.083 h: CD1 mice plasma; for concentration at 0.25 h / concentration at 0.5 h / concentration at 1 h / concentration at 2 h / concentration at 4 h / concentration at 8 h / concentration at 24 h / AUC(0-t) / half-life / concentration at 0.033 h / concentration at 0.083 h: male, CD1, mouse, plasma
Procedure, shortened: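 Male CD1 mice, 6-8 weeks old, 3 per group, dosed IV (5 s injection; 10% HP-b-CD, 40 mM sodium acetate, 40 mM NaCl, pH 4.5) or IP (5% EtOH, 5% Solutol HS15 in D5W). Serial dorsal metatarsal vein blood, terminal heart puncture; plasma analysed by LC/MS/MS after acetonitrile precipitation, calibration 1-2000 ng/mL.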

PPB = type: in vitro ADME; conditions: plasma
[2] = ip, 10 mg/kg, IP 10 mg/kg, read-out: Conc. (ng/mL) Mouse 1
[3] = ip, 10 mg/kg, IP 10 mg/kg, read-out: Conc. (ng/mL) Mouse 2
[4] = ip, 10 mg/kg, IP 10 mg/kg, read-out: Conc. (ng/mL) Mouse 3
[5] = ip, 10 mg/kg, IP 10 mg/kg, read-out: Mean
[6] = iv, 1 mg/kg, IV 1.0 mg/kg, read-out: Conc. (ng/mL) Mouse 1
[7] = iv, 1 mg/kg, IV 1.0 mg/kg, read-out: Conc. (ng/mL) Mouse 2
[8] = iv, 1 mg/kg, IV 1.0 mg/kg, read-out: Conc. (ng/mL) Mouse 3
[9] = iv, 1 mg/kg, IV 1.0 mg/kg, read-out: Mean

For `Cc1ncsc1-c1ccc(CNC(=O)[C@@H]2C[C@@H](O)CN2C(=O)[C@@H](NC(=O)COCCOc2ccc(Nc3ncc(C(F)(F)F)c(NCc4cccc(N(C)S(C)(=O)=O)c4)n3)cc2)C(C)(C)C)cc1` [Compound 100, (2S,4R)-1-((S)-3,3-dimethyl-2-(2-(2-(4-((4-((3-(N-methylmethylsulfonamido)benzyl)amino)-5-(trifluoromethyl)pyrimidin-2-yl)amino)phenoxy)ethoxy)acetamido)butanoyl)-4-hydroxy-N-(4-(4-methylthiazol-5-yl)benzyl)pyrrolidine-2-carboxamide], the “Conc. (ng/mL) Mouse 2” value ([1]; IP 10 mg/kg, 24 h) was “BLOQ”, the “Conc. (ng/mL) Mouse 1” value ([1]; IV 1.0 mg/kg, 8 h) was “BLOQ” and the “Conc. (ng/mL) Mouse 2” value ([1]; IV 1.0 mg/kg, 8 h) was “BLOQ”. For the same molecule, the “Conc. (ng/mL) Mouse 3” value ([1]; IV 1.0 mg/kg, 8 h) was “BLOQ”, the “Conc. (ng/mL) Mouse 1” value ([1]; IV 1.0 mg/kg, 24 h) was “BLOQ” and the “Conc. (ng/mL) Mouse 2” value ([1]; IV 1.0 mg/kg, 24 h) was “BLOQ”. For the same molecule, the “Conc. (ng/mL) Mouse 3” value ([1]; IV 1.0 mg/kg, 24 h) was “BLOQ”, the concentration at 0.25 h [1, 2] was 252 ng/mL and the concentration at 0.25 h [1, 3] was 402 ng/mL. The concentration at 0.25 h [1, 4] was 374 ng/mL, the concentration at 0.25 h [1, 5] was 343 ng/mL and the concentration at 0.5 h [1, 2] was 362 ng/mL. For the same molecule, the concentration at 0.5 h [1, 3] was 467 ng/mL, the concentration at 0.5 h [1, 4] was 373 ng/mL and the concentration at 0.5 h [1, 5] was 401 ng/mL. It also gave a concentration at 1 h [1, 2] of 648 ng/mL, a concentration at 1 h [1, 3] of 1550 ng/mL and a concentration at 1 h [1, 4] of 2480 ng/mL. It also gave a concentration at 1 h [1, 5] of 1560 ng/mL, a concentration at 2 h [1, 2] of 764 ng/mL and a concentration at 2 h [1, 3] of 1750 ng/mL. It also gave a concentration at 2 h [1, 4] of 1610 ng/mL, a concentration at 2 h [1, 5] of 1380 ng/mL and a concentration at 4 h [1, 2] of 362 ng/mL. It also gave a concentration at 4 h [1, 3] of 625 ng/mL, a concentration at 4 h [1, 4] of 510 ng/mL and a concentration at 4 h [1, 5] of 499 ng/mL. It also gave a concentration at 8 h ([1]; ip, 10 mg/kg, IP 10 mg/kg, 8 h, read-out: Conc. (ng/mL) Mouse 1) of 95.4 ng/mL, a concentration at 8 h ([1]; ip, 10 mg/kg, IP 10 mg/kg, 8 h, read-out: Conc. (ng/mL) Mouse 2) of 111 ng/mL and a concentration at 8 h ([1]; ip, 10 mg/kg, IP 10 mg/kg, 8 h, read-out: Conc. (ng/mL) Mouse 3) of 151 ng/mL. It also gave a concentration at 8 h ([1]; ip, 10 mg/kg, IP 10 mg/kg, 8 h, read-out: Mean) of 119 ng/mL, a concentration at 24 h ([1]; ip, 10 mg/kg, IP 10 mg/kg, 24 h, read-out: Conc. (ng/mL) Mouse 1) of 1.35 ng/mL and a concentration at 24 h ([1]; ip, 10 mg/kg, IP 10 mg/kg, 24 h, read-out: Conc. (ng/mL) Mouse 3) of 1.56 ng/mL. It also gave a concentration at 24 h ([1]; ip, 10 mg/kg, IP 10 mg/kg, 24 h, read-out: Mean) of 1.46 ng/mL, an AUC(0-t) ([1]; ip, 10 mg/kg, read-out: AUClast (h * ng/mL) IP) of 5870 ng·h/mL and a half-life ([1]; ip, 10 mg/kg, read-out: T ½ (h) IP (converted)) of 2.15 h. It also gave a concentration at 0.033 h [1, 6] of 1320 ng/mL, a concentration at 0.033 h [1, 7] of 1390 ng/mL and a concentration at 0.033 h [1, 8] of 1150 ng/mL. For the same molecule, the concentration at 0.033 h [1, 9] was 1290 ng/mL, the concentration at 0.083 h [1, 6] was 233 ng/mL and the concentration at 0.083 h [1, 7] was 313 ng/mL. For the same molecule, the concentration at 0.083 h [1, 8] was 205 ng/mL, the concentration at 0.083 h [1, 9] was 250 ng/mL and the concentration at 0.25 h [1, 6] was 34.7 ng/mL. The concentration at 0.25 h [1, 7] was 48.2 ng/mL, the concentration at 0.25 h [1, 8] was 36.4 ng/mL and the concentration at 0.25 h [1, 9] was 39.8 ng/mL. The concentration at 0.5 h [1, 6] was 17.4 ng/mL, the concentration at 0.5 h [1, 7] was 27.1 ng/mL and the concentration at 0.5 h [1, 8] was 18 ng/mL. For the same molecule, the concentration at 0.5 h [1, 9] was 20.8 ng/mL, the concentration at 1 h [1, 6] was 6.22 ng/mL and the concentration at 1 h [1, 7] was 9.77 ng/mL. For the same molecule, the concentration at 1 h [1, 8] was 8.79 ng/mL, the concentration at 1 h [1, 9] was 8.26 ng/mL and the concentration at 2 h [1, 6] was 3.27 ng/mL. The concentration at 2 h [1, 7] was 5.86 ng/mL, the concentration at 2 h [1, 8] was 3.98 ng/mL and the concentration at 2 h [1, 9] was 4.37 ng/mL. The concentration at 4 h [1, 6] was 1.84 ng/mL, the concentration at 4 h [1, 7] was 4.11 ng/mL and the concentration at 4 h [1, 8] was 2.13 ng/mL. For the same molecule, the concentration at 4 h [1, 9] was 2.69 ng/mL, the AUC(0-t) ([1]; iv, 1 mg/kg, read-out: AUClast (h * ng/mL) IV) was 175 ng·h/mL and the half-life ([1]; iv, 1 mg/kg, read-out: T ½ (h) IV (converted)) was 1.95 h. The fraction unbound (PPB) was 0.008.
